≈ marks a conversion by molar mass, not a printed value. Like-named read-outs stand apart in the source and are kept apart here.
Experiments:
Test in all cases: MIC determination
Format in all cases: cell-based
[1] = system: E. faecalis ATCC 29212; details: Enterococcus faecalis
[2] = system: E. coli ATCC 25922; details: Escherichia coli
[3] = system: S. pyogenes ATCC 19615; details: Streptococcus pyogenes, ATCC19615; S. pyogenes ATCC 19615; read-out: MIC
[4] = system: K. pneumoniae ATCC 10031; details: Klebsiella pneumoniae, ATCC10031
[5] = system: S. aureus ATCC 29213; details: Staphylococcus aureus
[6] = system: E. coli MP-74 LptD mutant; details: Escherichia coli
[7] = system: H. influenzae ATCC 49247; details: Haemophilus influenzae, ATCC49247
[8] = system: E. coli MP-9 ΔTolC; details: Escherichia coli
[9] = system: S. aureus MP-549 msr(a) USA 300; details: Staphylococcus aureus, USA300, S. aureus MP-549 msr(a) USA 300
[10] = system: S. pneumoniae ATCC 49619; details: Streptococcus pneumoniae, ATCC49619; S. pneumoniae ATCC 49619; read-out: MIC
[11] = system: S. aureus BAA 977 iErmA; details: Staphylococcus aureus, BAA977
[12] = ATCC29213, S. aureus ATCC 29213, read-out: MIC
[13] = ATCC25922, E. coli ATCC 25922, read-out: MIC
[14] = K. pneumoniae ATCC 10031, read-out: MIC
[15] = H. influenzae ATCC 49247, read-out: MIC

Structure (SMILES) | MIC ([1]; ATCC29212) | MIC ([2]; ATCC25922) | MIC [3] | MIC [4] | MIC [5, 12] | MIC [6] | MIC [7] | MIC [8] | MIC [9] | MIC [10] | MIC ([1]; ATCC29212, read-out: MIC) | MIC [2, 13] | MIC [4, 14] | MIC ([5]; ATCC29213) | MIC [7, 15] | MIC [11]
CSC1O[C@H]([C@H](NC(=O)[C@H]2NC[C@@H]3CC(NCc4ccccc4F)CCO[C@H]32)[C@H](C)Cl)C(O)C(O)[C@H]1O (some centres unmarked) [FSA-510072] | > 64 µg/mL | > 64 µg/mL | 8 µg/mL (≈ 14.2 µM) | > 64 µg/mL | 64 µg/mL (≈ 114 µM) | > 64 µg/mL | > 64 µg/mL | > 64 µg/mL | 64 µg/mL (≈ 114 µM) | 30 µg/mL (≈ 53.4 µM) | – | – | – | – | – | –
COc1ccc(C2CCO[C@@H]3[C@H](CN[C@@H]3C(=O)N[C@H]([C@H](C)Cl)[C@H]3OC(SC)[C@H](O)C(O)C3O)C2)cc1 (some centres unmarked) [FSA-511045] | – | – | ≤ 0.06 µg/mL | – | – | 32 µg/mL (≈ 58.7 µM) | – | 8 µg/mL (≈ 14.7 µM) | 0.25 µg/mL (≈ 0.459 µM) | ≤ 0.06 µg/mL | 1 µg/mL (≈ 1.83 µM) | > 64 µg/mL | 16 µg/mL (≈ 29.4 µM) | 0.5 µg/mL (≈ 0.917 µM) | 16 µg/mL (≈ 29.4 µM) | –
CSC1O[C@H]([C@H](NC(=O)[C@H]2NC[C@@H]3CCCCO[C@@H]32)[C@H](C)Cl)C(O)[C@@H](O)[C@H]1O (some centres unmarked) [FSA-504062] | – | > 64 µg/mL | 0.12 µg/mL (≈ 0.273 µM) | > 64 µg/mL | 2 µg/mL (≈ 4.56 µM) | > 64 µg/mL | > 64 µg/mL | > 64 µg/mL | 1 µg/mL (≈ 2.28 µM) | 0.25 µg/mL (≈ 0.57 µM) | 32 µg/mL (≈ 72.9 µM) | – | – | – | – | –
CSC1O[C@H]([C@H](NC(=O)[C@H]2NC[C@@H]3CC(c4cccc5cnccc45)=CCO[C@H]32)[C@H](C)Cl)C(O)[C@@H](O)[C@H]1O (some centres unmarked) [FSA-510006] | – | > 64 µg/mL | 0.5 µg/mL (≈ 0.886 µM) | > 64 µg/mL | 8 µg/mL (≈ 14.2 µM) | 64 µg/mL (≈ 113 µM) | > 64 µg/mL | > 64 µg/mL | – | 1 µg/mL (≈ 1.77 µM) | 16 µg/mL (≈ 28.4 µM) | – | – | – | – | 16 µg/mL (≈ 28.4 µM)
COc1ccc(C2=CCO[C@@H]3[C@H](CN[C@@H]3C(=O)N[C@H]([C@H](C)Cl)[C@H]3OC(SC)[C@H](O)[C@H](O)C3O)C2)cc1 (some centres unmarked) [FSA-511020] | – | – | ≤ 0.06 µg/mL | – | 0.5 µg/mL (≈ 0.921 µM) | 64 µg/mL (≈ 118 µM) | 64 µg/mL (≈ 118 µM) | 64 µg/mL (≈ 118 µM) | 1 µg/mL (≈ 1.84 µM) | ≤ 0.06 µg/mL | 4 µg/mL (≈ 7.37 µM) | > 64 µg/mL | > 64 µg/mL | – | – | –
CSC1O[C@H]([C@H](NC(=O)[C@H]2NC[C@@H]3C=C(C#Cc4ccccc4)CCO[C@@H]23)[C@H](C)Cl)C(O)[C@@H](O)[C@H]1O (some centres unmarked) [FSA-510002] | – | > 64 µg/mL | 0.25 µg/mL (≈ 0.465 µM) | – | 0.5 µg/mL (≈ 0.931 µM) | 32 µg/mL (≈ 59.6 µM) | 32 µg/mL (≈ 59.6 µM) | > 64 µg/mL | – | 0.25 µg/mL (≈ 0.465 µM) | 2 µg/mL (≈ 3.72 µM) | – | 64 µg/mL (≈ 119 µM) | – | – | 0.25 µg/mL (≈ 0.465 µM)
COc1ccc(C2=C[C@H]3CN[C@H](C(=O)N[C@H]([C@H](C)Cl)[C@H]4OC(SC)[C@H](O)[C@H](O)C4O)[C@@H]3OCC2)cc1 (some centres unmarked) [FSA-512076] | – | – | ≤ 0.12 µg/mL | – | 0.25 µg/mL (≈ 0.46 µM) | 64 µg/mL (≈ 118 µM) | – | 64 µg/mL (≈ 118 µM) | 0.25 µg/mL (≈ 0.46 µM) | ≤ 0.12 µg/mL | 2 µg/mL (≈ 3.68 µM) | > 256 µg/mL | – | – | 128 µg/mL (≈ 236 µM) | –
CSC1O[C@H]([C@H](NC(=O)[C@@H]2[C@@H]3OCC=CC[C@H]3CN2C2CC2)[C@H](C)Sc2ccc(-c3cccnc3)cc2)C(O)C(O)[C@H]1O (some centres unmarked) [FSA-214009a] | – | – | 4 µg/mL (≈ 6.37 µM) | – | 64 µg/mL (≈ 102 µM) | – | – | – | – | 4 µg/mL (≈ 6.37 µM) | > 64 µg/mL | > 64 µg/mL | – | – | – | –
CSC1O[C@H]([C@H](NC(=O)[C@H]2NC[C@@H]3CC(NC4CC4)CCO[C@H]32)[C@H](C)Cl)C(O)[C@@H](O)[C@H]1O (some centres unmarked) [FSA-510011] | > 64 µg/mL | > 64 µg/mL | 2 µg/mL (≈ 4.05 µM) | > 64 µg/mL | 32 µg/mL (≈ 64.8 µM) | > 64 µg/mL | > 64 µg/mL | > 64 µg/mL | – | 8 µg/mL (≈ 16.2 µM) | – | – | – | – | – | 32 µg/mL (≈ 64.8 µM)
CSC1O[C@H]([C@H](NC(=O)[C@H]2NC[C@@H]3CC(c4ccc(C#N)cc4)=CCO[C@H]32)[C@H](C)Cl)C(O)[C@@H](O)[C@H]1O (some centres unmarked) [FSA-511033] | – | – | ≤ 0.06 µg/mL | 64 µg/mL (≈ 119 µM) | 0.5 µg/mL (≈ 0.929 µM) | 64 µg/mL (≈ 119 µM) | 64 µg/mL (≈ 119 µM) | 32 µg/mL (≈ 59.5 µM) | 1 µg/mL (≈ 1.86 µM) | ≤ 0.06 µg/mL | 2 µg/mL (≈ 3.72 µM) | > 64 µg/mL | – | – | – | –
CSC1O[C@H]([C@H](NC(=O)[C@H]2NC[C@@H]3CC(NCc4cccc(F)c4)CCO[C@H]32)[C@H](C)Cl)C(O)[C@@H](O)[C@H]1O (some centres unmarked) [FSA-510073] | > 64 µg/mL | > 64 µg/mL | 2 µg/mL (≈ 3.56 µM) | > 64 µg/mL | 16 µg/mL (≈ 28.5 µM) | > 64 µg/mL | > 64 µg/mL | > 64 µg/mL | 16 µg/mL (≈ 28.5 µM) | 8 µg/mL (≈ 14.2 µM) | – | – | – | – | – | –

Source: US11767341B2, “Lincosamide antibiotics and uses thereof” (President and Fellows of Harvard College, priority 2017, dated 2023)
